Source: ChEMBL document CHEMBL1201862, “PubChem BioAssay data set” (2004)
The source made the active and inactive calls.

Experiments:
Cytochrome P450 2C9 = Cytochrome P450 2C9 (Homo sapiens, UniProt P11712); conditions: Potency
Aspartyl aminopeptidase = biological target: T1, Aspartyl aminopeptidase (Plasmodium falciparum 3D7, UniProt Q8I2J3)
T1 sequence (Q8I2J3 whole entry): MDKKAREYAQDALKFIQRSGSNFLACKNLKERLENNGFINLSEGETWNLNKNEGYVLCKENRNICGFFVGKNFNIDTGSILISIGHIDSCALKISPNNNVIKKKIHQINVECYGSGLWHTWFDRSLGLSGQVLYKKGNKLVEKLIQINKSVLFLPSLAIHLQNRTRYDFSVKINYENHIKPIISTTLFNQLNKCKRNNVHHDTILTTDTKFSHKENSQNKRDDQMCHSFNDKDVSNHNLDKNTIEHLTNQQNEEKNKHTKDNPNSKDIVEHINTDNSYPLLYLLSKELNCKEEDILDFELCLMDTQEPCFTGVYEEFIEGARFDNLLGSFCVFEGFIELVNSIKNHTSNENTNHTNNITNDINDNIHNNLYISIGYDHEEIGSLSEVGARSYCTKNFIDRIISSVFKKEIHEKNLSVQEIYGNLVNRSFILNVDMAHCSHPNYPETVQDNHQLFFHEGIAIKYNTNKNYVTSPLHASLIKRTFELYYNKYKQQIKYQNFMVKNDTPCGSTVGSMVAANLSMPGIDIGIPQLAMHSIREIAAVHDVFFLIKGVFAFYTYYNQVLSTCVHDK

Procathepsin L = Procathepsin L (Homo sapiens, UniProt P07711)
Chain of Procathepsin L (P07711 whole entry): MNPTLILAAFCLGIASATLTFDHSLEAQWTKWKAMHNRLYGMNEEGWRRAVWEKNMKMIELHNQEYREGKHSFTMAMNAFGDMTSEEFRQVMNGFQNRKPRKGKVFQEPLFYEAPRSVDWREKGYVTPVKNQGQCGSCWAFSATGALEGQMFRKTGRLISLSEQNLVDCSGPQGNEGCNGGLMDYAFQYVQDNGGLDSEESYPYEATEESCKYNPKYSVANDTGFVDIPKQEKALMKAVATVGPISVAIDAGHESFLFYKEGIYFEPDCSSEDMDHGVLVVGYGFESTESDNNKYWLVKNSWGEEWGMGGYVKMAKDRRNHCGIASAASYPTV

Insulin-degrading enzyme = biological target: T2, Insulin-degrading enzyme (Homo sapiens, UniProt P14735); assay: Dose Response: Fluorescence polarization-based cell-based high throughput dose response assay for inhibitors of insulin-degrading enzyme (IDE). [Related pubchem assays: 434962 (Primary screen (IDE inhibitors in singlicate)), 449730 (Counterscreen (Cytotoxicity in triplicate)), 435028 (Confirmation (IDE inhibitors in triplicate)), 434984 (Summary …; assay type: functional
T2 sequence (P14735 whole entry): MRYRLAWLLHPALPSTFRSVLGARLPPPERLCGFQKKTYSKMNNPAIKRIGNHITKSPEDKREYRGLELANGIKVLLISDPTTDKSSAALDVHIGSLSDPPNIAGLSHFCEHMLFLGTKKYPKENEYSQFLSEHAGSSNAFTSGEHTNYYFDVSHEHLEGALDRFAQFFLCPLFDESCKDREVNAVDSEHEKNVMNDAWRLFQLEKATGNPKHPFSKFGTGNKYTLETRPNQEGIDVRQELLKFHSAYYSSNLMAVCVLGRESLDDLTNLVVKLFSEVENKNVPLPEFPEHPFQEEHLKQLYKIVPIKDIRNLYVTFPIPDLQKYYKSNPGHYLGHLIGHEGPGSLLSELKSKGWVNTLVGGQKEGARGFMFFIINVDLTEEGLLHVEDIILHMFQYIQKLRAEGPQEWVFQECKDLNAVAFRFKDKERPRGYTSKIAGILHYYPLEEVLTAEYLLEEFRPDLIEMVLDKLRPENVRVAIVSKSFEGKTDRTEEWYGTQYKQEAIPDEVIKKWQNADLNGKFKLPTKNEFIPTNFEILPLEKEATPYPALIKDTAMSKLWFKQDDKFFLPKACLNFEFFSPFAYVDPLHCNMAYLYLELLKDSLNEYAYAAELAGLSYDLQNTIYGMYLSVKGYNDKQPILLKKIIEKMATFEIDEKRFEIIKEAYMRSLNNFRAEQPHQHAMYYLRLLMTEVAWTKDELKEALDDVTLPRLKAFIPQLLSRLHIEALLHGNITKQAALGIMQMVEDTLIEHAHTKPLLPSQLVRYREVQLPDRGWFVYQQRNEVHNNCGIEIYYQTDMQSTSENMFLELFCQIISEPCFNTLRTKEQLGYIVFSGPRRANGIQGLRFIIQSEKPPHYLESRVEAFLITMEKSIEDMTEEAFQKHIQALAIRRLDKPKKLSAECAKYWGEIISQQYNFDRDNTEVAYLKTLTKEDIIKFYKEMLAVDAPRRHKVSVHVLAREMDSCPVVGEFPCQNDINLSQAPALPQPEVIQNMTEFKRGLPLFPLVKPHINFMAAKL

[1] = biological target: T3, Calpain-2 catalytic subunit (Sus scrofa, UniProt P43367); assay: pig calpain II inhibitor potency, dose response, biochemical, fluorogenic peptide substrate (AID 1420); assay type: functional
T3 sequence (P43367 whole entry): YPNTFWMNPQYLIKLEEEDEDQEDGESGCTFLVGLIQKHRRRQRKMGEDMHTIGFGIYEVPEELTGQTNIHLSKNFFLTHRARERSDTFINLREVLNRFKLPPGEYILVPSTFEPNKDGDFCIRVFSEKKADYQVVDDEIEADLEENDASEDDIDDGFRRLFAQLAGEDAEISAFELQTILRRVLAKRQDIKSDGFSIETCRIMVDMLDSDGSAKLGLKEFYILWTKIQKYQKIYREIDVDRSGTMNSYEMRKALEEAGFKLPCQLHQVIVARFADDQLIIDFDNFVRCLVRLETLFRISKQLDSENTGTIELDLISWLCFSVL

[2] = biological target: T4, Histone-lysine N-methyltransferase NSD2 (Homo sapiens, UniProt O96028); assay type: biochemical
T4 sequence (O96028 whole entry): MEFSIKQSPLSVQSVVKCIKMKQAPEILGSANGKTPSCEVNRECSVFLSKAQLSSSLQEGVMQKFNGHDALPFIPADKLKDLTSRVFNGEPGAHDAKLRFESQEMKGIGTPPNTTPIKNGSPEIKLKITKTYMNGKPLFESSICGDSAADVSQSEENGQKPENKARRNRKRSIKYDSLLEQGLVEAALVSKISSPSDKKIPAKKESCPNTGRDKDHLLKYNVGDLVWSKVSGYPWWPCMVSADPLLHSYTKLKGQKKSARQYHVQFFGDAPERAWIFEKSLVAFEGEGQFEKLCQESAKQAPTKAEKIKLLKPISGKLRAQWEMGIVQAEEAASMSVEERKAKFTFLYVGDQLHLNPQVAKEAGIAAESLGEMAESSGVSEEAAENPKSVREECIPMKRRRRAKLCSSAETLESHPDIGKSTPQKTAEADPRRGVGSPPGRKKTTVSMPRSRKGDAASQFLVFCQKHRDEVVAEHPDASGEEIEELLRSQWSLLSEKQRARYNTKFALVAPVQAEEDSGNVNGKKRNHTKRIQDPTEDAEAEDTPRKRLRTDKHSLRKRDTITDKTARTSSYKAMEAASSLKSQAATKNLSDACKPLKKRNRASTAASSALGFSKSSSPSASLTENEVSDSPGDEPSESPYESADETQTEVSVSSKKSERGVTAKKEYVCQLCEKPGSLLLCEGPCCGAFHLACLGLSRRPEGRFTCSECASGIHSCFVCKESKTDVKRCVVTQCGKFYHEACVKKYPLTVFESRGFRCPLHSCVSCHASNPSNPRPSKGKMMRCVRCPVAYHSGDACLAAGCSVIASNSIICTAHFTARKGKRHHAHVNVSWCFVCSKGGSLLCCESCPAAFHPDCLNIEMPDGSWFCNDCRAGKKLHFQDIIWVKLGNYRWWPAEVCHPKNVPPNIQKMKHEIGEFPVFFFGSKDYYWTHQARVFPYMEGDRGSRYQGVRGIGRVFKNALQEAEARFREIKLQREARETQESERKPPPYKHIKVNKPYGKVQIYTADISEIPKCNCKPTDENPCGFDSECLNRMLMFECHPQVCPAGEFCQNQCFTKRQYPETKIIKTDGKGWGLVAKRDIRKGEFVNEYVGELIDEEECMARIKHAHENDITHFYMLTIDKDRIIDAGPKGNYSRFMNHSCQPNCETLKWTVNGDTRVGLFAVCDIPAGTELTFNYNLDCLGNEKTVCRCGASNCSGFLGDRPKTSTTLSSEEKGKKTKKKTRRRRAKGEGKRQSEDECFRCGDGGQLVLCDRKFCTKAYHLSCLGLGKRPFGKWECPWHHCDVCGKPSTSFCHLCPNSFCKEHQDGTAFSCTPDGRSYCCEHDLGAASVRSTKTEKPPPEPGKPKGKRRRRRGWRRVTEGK

Large T antigen = Large T antigen (Simian virus 40, UniProt P03070); assay type: functional, Betapolyomavirus macacae;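 also: Confirmatory-stage PubChem screen for compounds that inhibit SV40 T antigen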
Chain of Large T antigen (P03070 whole entry): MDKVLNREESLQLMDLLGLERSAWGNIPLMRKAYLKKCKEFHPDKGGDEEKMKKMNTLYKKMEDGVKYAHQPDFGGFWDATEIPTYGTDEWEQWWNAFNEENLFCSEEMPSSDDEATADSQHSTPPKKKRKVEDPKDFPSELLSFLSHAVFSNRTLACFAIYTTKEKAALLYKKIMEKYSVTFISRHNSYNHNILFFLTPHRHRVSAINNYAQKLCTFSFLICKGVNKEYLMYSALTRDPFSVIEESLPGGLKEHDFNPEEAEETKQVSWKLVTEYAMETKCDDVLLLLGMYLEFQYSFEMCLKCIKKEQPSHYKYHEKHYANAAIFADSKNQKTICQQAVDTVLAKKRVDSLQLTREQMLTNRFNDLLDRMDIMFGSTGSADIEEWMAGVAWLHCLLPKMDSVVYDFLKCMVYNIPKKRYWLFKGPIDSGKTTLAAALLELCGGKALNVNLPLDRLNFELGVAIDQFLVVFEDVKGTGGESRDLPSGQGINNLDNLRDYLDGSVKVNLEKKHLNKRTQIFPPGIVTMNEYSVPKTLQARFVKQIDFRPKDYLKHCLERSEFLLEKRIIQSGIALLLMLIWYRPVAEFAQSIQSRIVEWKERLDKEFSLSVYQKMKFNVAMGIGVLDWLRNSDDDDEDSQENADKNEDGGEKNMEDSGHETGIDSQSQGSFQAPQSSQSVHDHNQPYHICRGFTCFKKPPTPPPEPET

[3] = Counterscreen for IDE inhibitors: Luminescence-based cell-based high throughput dose response assay to identify compounds that are cytotoxic to HEK cells. [Related pubchem assays: 434962 (Primary screen (IDE inhibitors in singlicate)), 449730 (Counterscreen (Cytotoxicity in triplicate)), 435028 (Confirmation (IDE inhibitors in triplicate)) …; assay type: functional; conditions: HEK293
[4] = inhibitors of SNCA 5'UTR-driven translation, confirmation, luminescence, H4 neuroglioblastoma cells, dose confirmation (AID 2454); assay type: functional, cell-based;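 also: H4 neuroglioblastoma cells carrying an alpha-synuclein 5'UTR luciferase reporter; potency for inhibition of the luciferase signal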
cells = assay type: functional, cell-based
[5] = luciferase reporter signal reduction – luminescence, H4-C neuroglioblastoma cells, dose response (AID 2458); assay type: functional, cell-based;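 also: H4 neuroglioblastoma cells stably carrying a luciferase reporter gene fusion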
[6] = Luminescence Cell-Based Dose Response HTS to Identify Inhibitors of 5'UTR Stem-Loop Driven Prion Protein mRNA Translation in H4 Neuroglioblastoma Cells. [Related pubchem assays: 1827 (Project Summary), 1813 (Primary HTS)]; assay type: functional
[7] = inhibitors of SNCA 5'UTR-driven reporter translation, confirmation, H4 neuroglioma cells, luminescence (AID 1988); assay type: functional, cell-based
[8] = cytotoxicity in HEK-293T cells, dose response, cytotoxicity control for TCR NF-kB inhibitor project, luminescence, T-cell screen hits (AID 489026); assay type: functional, cell-based;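 also: cells exposed to compound about 14 hours before the viability readout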
[9] = inhibitors of firefly luciferase expression or activity, dose response, H4 neuroglioma cells, luminescence (AID 1990); assay type: functional, cell-based
[10] = biological target: Lysosomal acid glucosylceramidase (Homo sapiens, UniProt P04062); assay: Dose response cell-based high throughput screening assay to identify enhancers of beta-glucosidase activity. [Related pubchem assays: 784 ]; assay type: functional
Chain of Lysosomal acid glucosylceramidase (P04062 whole entry): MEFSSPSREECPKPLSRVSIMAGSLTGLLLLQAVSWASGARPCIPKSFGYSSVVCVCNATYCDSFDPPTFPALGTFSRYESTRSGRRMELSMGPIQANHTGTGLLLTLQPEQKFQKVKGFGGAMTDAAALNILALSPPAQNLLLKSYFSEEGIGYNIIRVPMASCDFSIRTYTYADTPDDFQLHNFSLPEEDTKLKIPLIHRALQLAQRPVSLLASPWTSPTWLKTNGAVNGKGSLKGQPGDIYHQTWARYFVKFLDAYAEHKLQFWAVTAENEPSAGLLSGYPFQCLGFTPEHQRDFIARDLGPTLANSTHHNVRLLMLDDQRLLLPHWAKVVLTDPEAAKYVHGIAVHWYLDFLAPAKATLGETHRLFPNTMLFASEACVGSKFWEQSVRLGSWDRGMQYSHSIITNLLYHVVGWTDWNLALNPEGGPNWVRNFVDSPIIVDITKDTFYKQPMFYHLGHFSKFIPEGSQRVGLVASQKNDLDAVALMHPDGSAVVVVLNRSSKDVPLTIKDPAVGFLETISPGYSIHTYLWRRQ

[11] = biological target: T5, Eukaryotic translation initiation factor 2-alpha kinase 3 (Homo sapiens, UniProt Q9NZJ5); assay: Dose response cell-based high-throughput screening assay to measure PERK inhibition. [Related pubchem assays: 1416 ]; assay type: functional
T5 sequence (Q9NZJ5 whole entry): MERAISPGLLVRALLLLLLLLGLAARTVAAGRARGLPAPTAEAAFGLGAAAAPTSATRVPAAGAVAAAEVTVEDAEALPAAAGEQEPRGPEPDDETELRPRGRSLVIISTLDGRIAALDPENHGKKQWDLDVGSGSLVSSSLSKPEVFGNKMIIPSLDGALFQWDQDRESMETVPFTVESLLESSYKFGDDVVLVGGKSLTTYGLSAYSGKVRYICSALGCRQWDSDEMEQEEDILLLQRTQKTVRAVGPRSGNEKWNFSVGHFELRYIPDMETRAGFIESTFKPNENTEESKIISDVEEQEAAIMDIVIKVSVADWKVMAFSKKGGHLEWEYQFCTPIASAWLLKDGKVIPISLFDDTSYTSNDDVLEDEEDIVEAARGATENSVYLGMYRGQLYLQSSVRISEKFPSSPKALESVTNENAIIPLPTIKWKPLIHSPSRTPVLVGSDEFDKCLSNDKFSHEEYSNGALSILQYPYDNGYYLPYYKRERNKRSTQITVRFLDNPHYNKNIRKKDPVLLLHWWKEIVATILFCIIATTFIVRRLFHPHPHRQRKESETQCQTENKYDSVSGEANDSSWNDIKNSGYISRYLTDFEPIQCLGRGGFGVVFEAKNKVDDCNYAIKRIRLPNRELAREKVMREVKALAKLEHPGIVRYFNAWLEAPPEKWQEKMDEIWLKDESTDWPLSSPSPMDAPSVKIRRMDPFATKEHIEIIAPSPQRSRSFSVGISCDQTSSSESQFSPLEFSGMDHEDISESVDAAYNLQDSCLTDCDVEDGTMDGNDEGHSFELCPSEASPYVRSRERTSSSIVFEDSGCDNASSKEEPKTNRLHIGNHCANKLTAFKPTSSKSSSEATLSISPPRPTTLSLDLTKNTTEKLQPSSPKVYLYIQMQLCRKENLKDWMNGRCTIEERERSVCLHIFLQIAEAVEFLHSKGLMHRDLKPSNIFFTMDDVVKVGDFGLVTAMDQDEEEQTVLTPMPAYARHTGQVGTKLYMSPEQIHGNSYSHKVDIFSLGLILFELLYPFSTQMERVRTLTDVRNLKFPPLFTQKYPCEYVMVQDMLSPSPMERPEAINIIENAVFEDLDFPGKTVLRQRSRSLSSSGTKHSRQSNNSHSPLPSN

[12] = biological target: T5, Eukaryotic translation initiation factor 2-alpha kinase 3; assay: Counterscreen assay for PERK inhibitors: Dose response cell-based high throughput screening assay to measure inhibition of PERK at 6 hours. [Related pubchem assays: 1522, 1416 ]; assay type: functional

Chain of Cytochrome P450 2C9 (P11712 whole entry): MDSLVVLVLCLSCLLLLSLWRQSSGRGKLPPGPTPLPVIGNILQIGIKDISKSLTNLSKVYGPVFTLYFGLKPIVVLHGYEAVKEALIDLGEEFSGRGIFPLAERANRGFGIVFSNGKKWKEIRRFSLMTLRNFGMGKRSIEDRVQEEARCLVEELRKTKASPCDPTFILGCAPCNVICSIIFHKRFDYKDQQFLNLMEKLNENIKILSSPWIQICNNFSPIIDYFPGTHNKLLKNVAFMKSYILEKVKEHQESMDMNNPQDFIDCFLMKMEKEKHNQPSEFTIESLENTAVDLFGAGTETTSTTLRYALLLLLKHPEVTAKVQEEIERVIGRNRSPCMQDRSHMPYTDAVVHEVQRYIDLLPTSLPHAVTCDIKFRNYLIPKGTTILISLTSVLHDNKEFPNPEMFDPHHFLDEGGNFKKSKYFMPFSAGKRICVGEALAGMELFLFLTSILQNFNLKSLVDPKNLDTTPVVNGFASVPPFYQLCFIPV

Question: For `CC(C)C[C@@H](CC(=O)N[C@@H](CCCN)CC(=O)N[C@@H]1CCNC[C@H]1C(=O)N[C@H](CC(=O)N[C@@H](CCC(=O)O)CC(=O)O)Cc1c[nH]c2ccccc12)NC(=O)[C@@H]1CCCC[C@H]1N`, which AC50 (Cytochrome P450 2C9) is on record?
Answer: 31.6 µM (inconclusive)

Question: Which AC50 (Cytochrome P450 2C9) does the source give for `C=C(C)C(O)/C=C/c1ccc(C)cc1` (configuration not stated) here?
Answer: 3.16 µM (inconclusive)

Question: What does the source list for `COC(=O)CN(n1cnnc1)S(=O)(=O)c1ccccc1Cl`?
Answer: IC50 (Aspartyl aminopeptidase): 0.381 µM (active); IC50 (Procathepsin L): > 59.6 µM (not active)

Question: Which results are given for `CN1CCC/C1=C/C=C1\SC(=S)NC1=O`?
Answer: IC50 (Insulin-degrading enzyme): 8.16 µM (active); IC50 [1]: 13.4 µM (not active); AC50 [2]: > 20 µM (inactive); IC50 (Large T antigen): 30.2 µM (active); IC50 [3]: > 55.6 µM (not active)

Question: What does the source list for `CC1=C([N+](=O)[O-])C(c2ccccc2)C2=C(O)c3ccccc3C2=N1` (configuration not stated)?
Answer: EC50 [4]: 4.09 µM (active); EC50 (cells): > 12 µM (not active); EC50 [5]: > 12 µM (not active); EC50 [6]: 4.95 µM (active); EC50 [7]: < 0.1 µM (active); IC50 [8]: 58.8 µM (inactive); EC50 [9]: 7.36 µM (active)

Question: With `O=C1/C(=C/Nn2cnnc2)c2ccccc2C(=O)N1c1ccccc1` as the compound, how does the IC50 (Aspartyl aminopeptidase) read?
Answer: 1.86 µM (active)

Question: And the IC50 (Procathepsin L)?
Answer: > 59.6 µM (not active)

Question: Which EC50 [10] does the source give for `CCOC(=O)N1CCN(C(=O)c2ccc3c(=O)n(Cc4ccccc4)c(=S)[nH]c3c2)CC1` here?
Answer: > 10 µM (not active)

Question: Which EC50 [11] does the source give for `Cc1ccc2cc(/C=N/Nc3nc4ccccc4[nH]3)c(Cl)nc2c1` here?
Answer: > 55.7 µM (not active)

Question: And the EC50 [12]?
Answer: > 55.7 µM (not active)

Question: With `Cc1cccn2c(=O)c3cc(C(=O)NCCCn4ccnc4)n(C)c3nc12` as the compound, how does the EC50 [10] read?
Answer: > 10 µM (not active)
